Source: PMC7908975, “Antioxidant and Anti-Inflammatory Activity of Citrus Flavanones Mix and Its Stability after In Vitro Simulated Digestion” (Antioxidants, 2021)

Tests used:
[1] = Trolox Equivalent Antioxidant Capacity (TEAC) assay
Description: TEAC assay was carried out according to Bazzicalupo et al.. […] Fifty microliters of each flavanone (2.0–64 µM) or trolox as reference compound (2.50–20 µM) were added to 1 mL of the TEAC reagent and incubated at RT in the dark for 6 min. The absorbance was recorded at 734 nm. Based on the results of the preliminary antioxidant and anti-inflammatory screening (see Section 2.2), the most powerful flavanones (neohesperidin, hesperidin, neoeriocitrin, eriocitrin, and hesperetin) were selected in order to prepare a flavanones mix (FM), which was, at first instance, investigated by the same in vitro colorimetric assays (see Section 2.2) in order to evaluate its potency with respect to the single flavanones and to elucidate potential synergistic mechanisms. The following final concentration range of FM were used: FRAP (2.50–20 µM), ORAC (0.08–0.60 µM), TEAC (0.31–2.50 µM), DPPH (1.25–10 µM), ADA (5.0–40 µM), and APA (2.50–20 µM). After that, being the results of the preliminary antioxidant and anti-inflammatory screening of FM very promising, an appropriate concentration was chosen to proceed with the subsequent analyses. […]

trypsin = assay: Anti-protease activity (APA), anti-tryptic activity; assay type: biochemical
Description: The anti-tryptic activity of sample was evaluated according to Smeriglio et al.. Briefly, 200 µL of each flavanone (6.25–140 µM) or diclofenac sodium as reference compound (10–80 µM) were added to 12 µL of trypsin (10 µg/mL) and 188 µL of 25 mM Tris-HCl buffer (pH 7.5). After that, 200 µL of 0.8% casein solution were added and samples incubated for 20 min at 37 °C in a water bath. After that, 400 µL of perchloric acid were added to stop the reaction. The cloudy suspension, due to the protein precipitation, was centrifuged at 3500× g for 10 min and the absorbance of the supernatant was recorded at 280 nm against a blank consisting of deionized water instead of sample. Based on the results of the preliminary antioxidant and anti-inflammatory screening (see Section 2.2), the most powerful flavanones (neohesperidin, hesperidin, neoeriocitrin, eriocitrin, and hesperetin) were selected in order to prepare a flavanones mix (FM), which was, at first instance, investigated by the same in vitro colorimetric assays (see Section 2.2) in order to evaluate its potency with respect to the single flavanones and to elucidate potential synergistic mechanisms. The following final concentration range of FM were used: FRAP (2.50–20 µM), ORAC (0.08–0.60 µM), TEAC (0.31–2.50 µM), DPPH (1.25–10 µM), ADA (5.0–40 µM), and APA (2.50–20 µM). […]

[2] = In vitro simulated human gastric and duodenal digestion with LC-DAD-ESI-MS/MS quantification; assay type: in vitro ADME; conditions: with respect to starting FM 10 µM
Excerpt: Based on the results of the preliminary antioxidant and anti-inflammatory screening (see Section 2.2), the most powerful flavanones (neohesperidin, hesperidin, neoeriocitrin, eriocitrin, and hesperetin) were selected in order to prepare a flavanones mix (FM), which was, at first instance, investigated by the same in vitro colorimetric assays (see Section 2.2) in order to evaluate its potency with respect to the single flavanones and to elucidate potential synergistic mechanisms. The following final concentration range of FM were used: FRAP (2.50–20 µM), ORAC (0.08–0.60 µM), TEAC (0.31–2.50 µM), DPPH (1.25–10 µM), ADA (5.0–40 µM), and APA (2.50–20 µM). After that, being the results of the preliminary antioxidant and anti-inflammatory screening of FM very promising, an appropriate concentration was chosen to proceed with the subsequent analyses. In particular, the FM was prepared on the assumption that digested sample, which would then be applied to the Caco-2 cells for the anti-inflammatory experiments, had to contain an equimolar concentration of the five most powerful flavanones (neohesperidin, hesperidin, neoeriocitrin, eriocitrin, and hesperetin) equal to 10 µM, which represents the mean efficacy concentration taking into account the IC50 values obtained in the preliminary antioxidant and anti-inflammatory screening of the FM. At this purpose, stock solutions (14 mM) of flavanones in DMSO were mixed and diluted 10-fold with Milli-Q water to obtain the 1.4 mM FM, which was used to carried out the in vitro simulated human digestion. In vitro gastric and duodenal digestion of FM was carried out according to Trombetta et al. with some modifications. FM solution (1.5 mL) (see Section 2.3), has been dissolved in 7.5 mL of simulated gastric solution containing 0.127 mM egg-phosphatidylcholine and adjusting the pH to 2.5, by 1 M HCl. Gastric pepsin and lipase (9000 U/mL and 60 U/mL, respectively) were added to the mixture starting the gastric digestion phase, which was protracted for 2 h at 37 °C, incubating under continuous stirring (170 rpm) by an Innova 4000 Benchtop Incubator Shaker (New Brunswick Scientific, Edison, NJ, USA). The gastric phase was stopped by the addition of 1M NaOH in order to reach a pH of 7.5, and 6 mL of the previous solution passed to the duodenal digestion phase. Duodenal solution was prepared by adding 2.10 mL of simulated bile solution (6.5 mM phosphatidylcholine, 4 mM cholesterol, 12.5 mM sodium taurocholate, and 12.5 mM sodium glycodeoxycholate) to 5.9 mL of simulated pancreatic juice containing pancreatic lipase (590 U/mL), colipase (3.2 µg/mL), trypsin (11 U/mL), α-chymotrypsin (24 U/mL), and α-amylase (300 U/mL). The duodenal mixture was incubated for 4 h under continuous stirring at 37 °C as described above. At the end, both gastric and duodenal digesta were immediately stored at −80 °C until the subsequent analyses. For quali-quantitative determination of flavanones, gastric and duodenal digesta were extracted with methanol (1:2, v/v) by mixing for 3 min. After that, samples were centrifuged at 12,000× g for 10 min, filtered by a 0.22 µm nylon syringe filter and injected into a liquid chromatograph equipped with a diode-array detector and mass spectrophotometer (LC-DAD-MS system, Agilent technologies, Santa Clara, CA, USA). The chromatographic separation was obtained using a reverse phase column Luna Omega PS C18 (150 × 2.1 mm, 5 µm; Phenomenex, Torrance, CA, USA) by using solvent A (formic acid 0.1% v/v) and solvent B (acetonitrile) as mobile phase according to the following elution gradient: 0 min, 0% B; 3–9 min, 3% B; 9–24 min, 12% B; 24–30 min, 20% B; 30–33 min, 33–43 30% B; 43–66 min 50% di B; 66–81 min 60% di B; 81–86 min 0% di B; 86–90 min 0% di B. […] UV–Vis spectra of flavanones were recorded (190–400 nm) and chromatograms were acquired at 292 nm, maximum flavanones absorption wavelength. […]

[3] = parameters: method as in PMID 19728713; conditions: as compounds of a bitter orange extract; cited from earlier work

## COc1ccc(C2CC(=O)c3c(O)cc(O)cc3O2)cc1O (centres unmarked) [Hesperetin, 3′,5,7-trihydroxy-4′-methoxyflavanone]
[1]
  IC50 in comparison with reference standard trolox, TEAC: a behavior comparable with the reference standard
trypsin
  anti-inflammatory activity less than the other tested molecules, protease inhibition: about 4 times
[2]; after gastric 2 h plus duodenal 4 h digestion, 37 °C
  DFM (µM): flavanone in duodenal digested flavanones mix: 8.76 ± 0.22 µM
[2]; after gastric digestion 2 h, pH 2.5, 37 °C
  GFM (µM): flavanone in gastric digested flavanones mix: 9.38 ± 0.18 µM
[3]
  stability after simulated in vitro digestion: stable after simulated in vitro digestion
